Earlier results on one compound are cited in US11353469B2, “Nontoxic compounds for use as taggants in nutritional and pharmaceutical products” (Hall Labs, LLC, priority 2019, dated 2022).

For the data set the following is noted: for amount recoverable in urine: single dose of 1 g/kg body weight.

Like-named read-outs stand apart in the source and are kept apart here.

In the case of `C[S+](C)[O-]` [DMSO, dimethylsulfoxide], under “applied topically”, the “time after administration at which DMSO has been detected in urine” value was 2 h and the “amount recoverable in urine” value was 13%. Also, under “orally administered”, the “time after administration at which compound could be detected in urine” value was 30 min and the “time of peak excretion in urine” value was no more than 4 h. In addition, the “amount recoverable in urine” value (administered orally) is 30-68%.
